Results published in patent publication US9220705B2, “Method of treating colorectal cancer” (priority 2013, dated 2015).
Values joined by “and” are separate entries in the source; they are usually repeats but may differ in a detail not shown here. Identical values can stand only once. Marks after values point to notes of the source that are not given here.

Legend:
A375 = assay: MTT cytotoxicity assay, 72 h; format: cell-based, human; conditions: A375, skin
Source text: (§1) Human breast (MCF-7) and colon (HCT-15, DDL1, SW480 and CaCo-2) carcinoma cell lines along with melanoma (A375) were obtained from the American Type Culture Collection (ATCC, Rockville, Md.). A431 are human cervical carcinoma cells kindly provided by Prof. F. Zunino (Molecular Pharmacology Unit, Experimental Oncology and Molecular Medicine, Istituto Nazionale dei Tumori, Milan, Italy). […] G. Marverti (Dept. of Biomedical Science, University of Modena, Italy). LoVo human colon-carcinoma cell line and its multidrug-resistant sublime (LoVo MDR) were kindly provided by Prof F. Maj one (Department of Biology of Padova University, Italy). […] Cell lines were maintained in the logarithmic phase at 37° C. in a 5% carbon dioxide atmosphere using the following culture media containing 10% fetal calf serum (Euroclone, Milan, Italy), antibiotics (50 units mL^−1 penicillin and 50 μg mL^−1 streptomycin), and 2 mM L-glutamine in: i) RPMI-1640 medium (Euroclone) for MCF-7, HCT-15, A431, DLD 1, 2008, and C13* cells; ii) F-12 HAM'S (Sigma Chemical Co.) for LoVo, LoVo MDR, and LoVo-OXP cells; iii) DMEM for A375 and SW 480 cells; and iv) MEM for CaCo-2 cells.
(§2) The growth inhibitory effect towards tumor cell lines was evaluated by means of the MTT (3-(4,5-dimethylthiazol-2-yl)-2,5-diphenyltetrazolium bromide) assay (Alley, M. C., et al., Cancer Res. 1988, 48, 589-601).
(§3) Briefly, depending upon the growth characteristics of the cell line, 3-8×10^3 cells well^−1, were seeded in 96-well microplates in growth medium (100 μL) and then incubated at 37° C. in a 5% carbon dioxide atmosphere. After 24 h, the medium was removed and replaced with a fresh one containing the compound to be studied, at the appropriate concentration, dissolved in 0.9% sodium chloride solution just before use. Triplicate cultures were established for each treatment. After 72 h, each well was treated with […] of a 5 mg mL^−1 MTT saline solution and, after 5 h of incubation, 100 μL of a sodium dodecylsulfate (SDS) solution in 0.01 M HCl were added. After an overnight incubation, the inhibition of cell growth induced by the tested complexes was determined by measuring the absorbance of each well at 570 nm using a BioRad 680 microplate reader. Mean absorbance for each drug dose was expressed as percentage of the control and plotted vs. drug concentration. Dose-response curves were fitted and IC50 values were calculated with four parameter logistic model (4PL).
(§4) Compound 1 was prepared for the first time almost twenty years ago however, until now, it had been tested (both in vitro and in vivo) only in a limited number of tumor cell lines (Hoeschele, J. D., et al., J. Med. Chem. 1994, 37, 2630-2636 and Shamsuddin, S., et al., J. Inorg. Biochem. 1996, 61, 291-301). The Pt(II) and Pt(IV) complexes containing isomeric forms of diaminocyclohexane, [PtCl2(cis-1,4-DACHA](1), [PtCl2(1R,2R-DACH)] (2), [Pt(OXA)(cis-1,4-DACH)] (3), cis,trans,cis-[Pt^IVCl2(OH)2(cis-1,4-DACH)] (4), cis,trans,cis-[Pt^IVCl2(DCA)2(cis-1,4-DACH)] (5), [Pt(CBDCA)(cis-1,4-DACH)] (6), cis,trans,cis-[Pt^IV(OXA)(OH)2(cis-1,4-DACH)] (7), and cis,trans,cis-[Pt^IV(OXA)(DCA)2(cis-1,4-DACH)] (8) were evaluated for their cytotoxic activity towards a panel of human tumor cell lines including cervical (A431), breast (MCF-7), cancers along with a melanoma (A375) and 4 different colon cancer cell lines corresponding to different stages of the disease progression (HCT-15, SW480, CaCo-2, DLD-1). The cytotoxicity was evaluated by means of the MTT test for 72 h treatment with increasing concentrations of the tested compounds.

A431 = assay: MTT cytotoxicity assay, 72 h; format: cell-based, human; conditions: A431, cervix
Source text: as §1, §2, §3, §4

DLD-1 = assay: MTT cytotoxicity assay, 72 h; format: cell-based, human; conditions: DLD-1, colon
Source text: as §1, §2, §3, §4

HCT-15 = assay: MTT cytotoxicity assay, 72 h; format: cell-based, human; conditions: HCT-15, colon
Source text: as §1, §2, §3, §4

MCF-7 = assay: MTT cytotoxicity assay, 72 h; format: cell-based, human; conditions: MCF-7, breast
Source text: as §1, §2, §3, §4

SW480 = assay: MTT cytotoxicity assay, 72 h; format: cell-based, human; conditions: SW480, colon
Source text: as §1, §2, §3, §4

LoVo colon cancer cells = assay: MTT cytotoxicity assay, cross-resistance profile; format: cell-based, human; conditions: 72 h
Source text: Human breast (MCF-7) and colon (HCT-15, DDL1, SW480 and CaCo-2) carcinoma cell lines along with melanoma (A375) were obtained from the American Type Culture Collection (ATCC, Rockville, Md.). A431 are human cervical carcinoma cells kindly provided by Prof. F. Zunino (Molecular Pharmacology Unit, Experimental Oncology and Molecular Medicine, Istituto Nazionale dei Tumori, Milan, Italy). […] G. Marverti (Dept. of Biomedical Science, University of Modena, Italy). LoVo human colon-carcinoma cell line and its multidrug-resistant sublime (LoVo MDR) were kindly provided by Prof F. Maj one (Department of Biology of Padova University, Italy).
as §2, §3
(§5) A LoVo cell line retaining a multidrug resistance phenotype was also considered (LoVo MDR). Cross-resistance profiles were evaluated by means of the resistance factor (RF), which is defined as the ratio between the IC50 value for the resistant cells and that arising from the sensitive cells (Table 2).

[1] = test system: 2008 ovarian cancer cells; assay: MTT cytotoxicity assay, cross-resistance profile; format: cell-based, human; conditions: 72 h
Source text: as §1, §2, §3, §5

[2] = test system: C13* cisplatin resistant ovarian cancer cells; assay: MTT cytotoxicity assay, cross-resistance profile; format: cell-based, human; conditions: for IC50: C13*, 72 h, MTT; for R.F. (resistance factor): IC50 C13* / IC50 2008, cross-resistance with cisplatin
Source text: as §1, §2, §3, §5

[3] = test system: LoVo-OXP oxaliplatin resistant colon cancer cells; assay: MTT cytotoxicity assay, cross-resistance profile; format: cell-based, human; conditions: for R.F. (resistance factor): IC50 LoVo-OXP / IC50 LoVo, cross-resistance with oxaliplatin; for IC50: LoVo-OXP, 72 h, MTT
Source text: as §1, §2, §3, §5

[4] = test system: LoVo MDR multidrug resistant colon carcinoma subline; assay: MTT cytotoxicity assay, cross-resistance profile; format: cell-based, human; conditions: for R.F. (resistance factor): IC50 LoVo-MDR / IC50 LoVo; for IC50: LoVo-MDR, 72 h, MTT
Source text: as §1, §2, §3, §5
In Table 2 are also reported the results obtained in a multidrug resistant (MDR) colon carcinoma subline, LoVo MDR, in which the resistance to doxorubicin, a drug belonging to the MDR spectrum, is associated with an overexpression of multi-specific drug transporters, such as the 170 kDa P-glycoprotein (P-gp) (Wersinger, C., et al., Amino Acids 2000, 19, 667-685). It is well known that acquired MDR, whereby cells become refractory to multiple drugs, poses most important challenge to the success of anticancer chemotherapy.

[5] = test system: 2008/C13*, LoVo/LoVo-OXP, LoVo MDR; assay: MTT cytotoxicity, comparison over the Table 2 cell lines; format: cell-based, human; conditions: 2008 ovarian and LoVo colon sensitive cells
Method: as §3, with “After” for “Briefly, depending upon the growth characteristics of the cell line, 3-8×10^3 cells well^−1, were seeded in 96-well microplates in growth medium (100 μL) and then incubated at 37° C. in a 5% carbon dioxide atmosphere. After”
as §5

[6] = test system: Lewis lung carcinoma (LLC); assay: In vivo anticancer activity toward Lewis lung carcinoma; parameters: species or system C57BL mice; conditions: daily dose i.p. 1.5 mg kg^−1 from day 9; day 15
Method: All studies involving animal testing were carried out in accordance with the ethical guidelines for animal research adopted by the University of Padua, acknowledging the Italian regulation and the European Directive 86/609/EEC as to animal welfare and protection and the related codes of practice. The mice were purchased from Charles River, Italy, and housed in steel cages under controlled environmental conditions (constant temperature, humidity, and 12 h dark/light cycle) and alimented with commercial standard feed and tap water ad libitum. Animals were observed daily, and body weight and food intake recorded. The Lewis lung carcinoma (LLC) cell line was purchased from ECACC, UK. The LLC cell line was maintained in D-MEM (Euroclone) supplemented with 10% heat-inactivated FBS (Euroclone), 10 mM L-glutamine, 100 U mL^−1 penicillin, and 100 μg mL^−1 streptomycin in a 5% CO2 air incubator at 37° C.
The Lewis lung carcinoma (LLC) was implanted i.m. as a 2×10^6 cell inoculum into the right hind leg of 8-week old male and female C57BL mice (24±3 g body weight). […] At day 15, animals were sacrificed, the legs were amputated at the proximal end of the femur, and the inhibition of tumor growth was determined according to the difference in weight of the tumor-bearing leg and the healthy leg of the animals expressed as % referred to the control animals. Body weight was measured every two days and was taken as a parameter for systemic toxicity.
All the values are the means±S.D. of not less than three measurements. Multiple comparisons were made by Tukey-Kramer test (**p<0.01; *p or °p<0.05).
The in vivo antitumor activity of compound 1 was evaluated in a model of solid tumor, the syngeneic murine Lewis lung carcinoma (LLC). […] For the assessment of the adverse side effects, changes in body weights of tumor-bearing mice were monitored daily (FIG. 3).

For `O=C1[O][Pt]2([OH])([OH])([NH]C3CCC(CC3)[NH]2)[O]C1=O` [Compound 7, (OC-6-33)-[ethanedioato(2)-O,O′](cis-1,4-cyclohexanediamine-N,N′)dihydroxyplatinum], the IC50 (A375) was 75.1 ± 6.54 µM, the IC50 (A431) was 59.5 ± 3.64 µM and the IC50 (DLD-1) was 82.2 ± 5.54 µM. The IC50 (HCT-15) was 72.1 ± 4.74 µM, the IC50 (MCF-7) was 112 ± 9.52 µM and the IC50 (SW480) was 69.4 ± 11.5 µM. For the same compound, the IC50 (LoVo colon cancer cells) was 61.2 ± 5.51 µM, the IC50 [1] was 59.5 ± 3.64 µM and the IC50 [2] was 78.7 ± 4.6 µM. The “R.F. (resistance factor)” value [2] was 1.3, the “R.F. (resistance factor)” value [3] was 1.1 and the IC50 [3] was 66.9 ± 5.12 µM. For the same compound, the “R.F. (resistance factor)” value [4] was 1.1, the IC50 [4] was 69.4 ± 4.83 µM and the “cytotoxic activity towards sensitive lines compared with reference drugs” value [5] was “less effective than oxaliplatin and cisplatin”.

`O=C1[O][Pt]2([O]C(=O)C(Cl)Cl)([O]C(=O)C(Cl)Cl)([NH]C3CCC(CC3)[NH]2)[O]C1=O` [Compound 8, (OC-6-33)-[ethanedioato(2)-O,O′](cis-1,4-cyclohexanediamine-N,N′)bisdichloroacetateplatinum] was tested, and the IC50 (A375) was 4.99 ± 1.15 µM, the IC50 (A431) was 7.41 ± 2.11 µM and the IC50 (DLD-1) was 8.26 ± 3.24 µM. It also gave an IC50 (HCT-15) of 13.7 ± 3.81 µM, an IC50 (MCF-7) of 12.6 ± 2.47 µM and an IC50 (SW480) of 10.6 ± 2.01 µM. The IC50 (LoVo colon cancer cells) was 9.08 ± 2.16 µM, the IC50 [1] was 11.1 ± 3.28 µM and the IC50 [2] was 9.12 ± 2.79 µM. For the same compound, the “R.F. (resistance factor)” value [2] was 0.8, the “R.F. (resistance factor)” value [3] was 1.2 and the IC50 [3] was 11.1 ± 3.05 µM. The “R.F. (resistance factor)” value [4] was 1.3, the IC50 [4] was 11.9 ± 3.33 µM and the “cytotoxic activity towards sensitive lines compared with reference drugs” value [5] was “lower than cisplatin and oxaliplatin in ovarian sensitive cancer cells, similar than cisplatin against colon sensitive cells”.

Compound `N.N.[Cl][Pt][Cl]` [cisplatin, cis-diamminedichloroplatinum(II), reference compound] has an IC50 (A375) of 2.06 ± 1.01 µM, an IC50 (A431) of 1.96 ± 0.84 µM and an IC50 (DLD-1) of 8.01 ± 2.22 µM. For the same compound, the IC50 (HCT-15) was 15.5 ± 2.48 µM, the IC50 (MCF-7) was 8.37 ± 2.96 µM and the IC50 (SW480) was 7.67 ± 1.34 µM. The IC50 (LoVo colon cancer cells) was 7.63 ± 1.53 µM, the IC50 [1] was 2.26 ± 1.06 µM and the IC50 [2] was 23.7 ± 2.42 µM. The “R.F. (resistance factor)” value [2] was 10.5, the “R.F. (resistance factor)” value [3] was 1.7 and the IC50 [3] was 13.1 ± 2.47 µM. The “R.F. (resistance factor)” value [4] was 1.1, the IC50 [4] was 7.53 ± 0.98 µM and the “Average tumor weight (mean ± SD, g)” value [6] was 0.199 ± 0.10** g. The “Inhibition of tumor growth (%)” value [6] was 75% and 74.66%.
